Data on twelve compounds can be found in BindingDB's records for doi:10.1021/bi401077f (Weill Cornell Medical College, 2013).

For assay [1], the target named is T1, Dihydrolipoyl dehydrogenase (Mycobacterium tuberculosis (strain CDC 1551 / Oshkosh), UniProt P9WHH8).
T1 sequence (P9WHH8 whole entry): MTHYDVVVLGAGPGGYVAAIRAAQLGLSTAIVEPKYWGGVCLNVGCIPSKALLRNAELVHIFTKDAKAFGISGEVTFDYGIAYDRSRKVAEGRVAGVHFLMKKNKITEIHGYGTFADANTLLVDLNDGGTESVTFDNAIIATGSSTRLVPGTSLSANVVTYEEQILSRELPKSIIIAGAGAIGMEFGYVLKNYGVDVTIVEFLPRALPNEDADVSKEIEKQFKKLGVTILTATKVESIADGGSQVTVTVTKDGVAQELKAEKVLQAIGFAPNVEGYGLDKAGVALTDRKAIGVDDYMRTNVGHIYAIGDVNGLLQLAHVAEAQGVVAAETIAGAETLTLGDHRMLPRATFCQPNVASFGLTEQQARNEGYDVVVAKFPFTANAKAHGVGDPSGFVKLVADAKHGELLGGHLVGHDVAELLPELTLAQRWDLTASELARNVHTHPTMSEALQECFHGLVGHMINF
In words: Enzyme Assays.

Assay [2] concerns the target T2, Dihydrolipoyl dehydrogenase (Mycobacterium tuberculosis (strain ATCC 25618 / H37Rv), UniProt P9WHH9).
T2 sequence (P9WHH9 whole entry): T1 sequence (P9WHH8 whole entry)
In words: Enzyme Assays.

The IC50 is the concentration that gives 50% inhibition. Consider `CCCCNS(=O)(=O)c1cc(Br)cnc1N` [E138-2195], for which the IC50 in assay [1] is more than 100 µM.
`CN1CCN(S(=O)(=O)c2cc(Br)cnc2N)CC1` [E138-2099] returned an IC50 in assay [1] of more than 100 µM.
For the compound `CN(Cc1ccccc1)C(=O)CN(C)S(=O)(=O)c1cc(Br)cnc1N` [E144-0828], inhibition in assay [1] was half-maximal at 34 µM (IC50).
The same measure, in the same setting: next, `O=C(Nc1ccc(Br)cc1)C1CCC(S(=O)(=O)c2cccnc2)CC1` (stereo not drawn) [C324-0095]: more than 100 µM; `CC1CCCCC1NC(=O)CN(C)S(=O)(=O)c1cccc2cccnc12` (stereo not drawn) [N-(2-methylcyclohexyl)-2-[methyl(quinolin-8-ylsulfonyl)amino]acetamide]: more than 100 µM; `CCCCN(C)C(=O)CCNS(=O)(=O)c1cc(Br)cnc1N` [E199-0112]: more than 100 µM.
On the same count and under the same terms, then `Cc1cc(NC(=O)CN(C)S(=O)(=O)c2cc(Br)cnc2N)ccc1Br` [K906-3584], with less than 0.1 µM.
One may read the Ki as a measure of affinity in units of concentration, obtained from inhibition or displacement. The low end stands for higher affinity, the high end for lower affinity. `CN(CC(=O)Nc1ccc(F)c(Cl)c1)S(=O)(=O)c1cc(Br)cnc1N` [SL418]: the results for the Ki in assay [2] and in assay [1] were 0.333 µM and 0.143 µM, respectively.
Turning to `CCN(Cc1ccccc1)C(=O)CN(C)S(=O)(=O)c1cc(Br)cnc1N` [E114-0951], the IC50 in assay [1] was determined as 12.5 µM.
In the case of `NC(=O)C(=O)NCc1cccnc1` [4031-0653], half-maximal inhibition in assay [1] (IC50) was put at 6 µM.
Consider `Nc1ncc(Br)cc1S(=O)(=O)NCCC(=O)Nc1cccc(Cl)c1` [K906-3123], for which the IC50 in assay [1] was more than 100 µM.
`CC(C)(C)NC(=O)C(=O)NCc1cccnc1` [4031-1995] displayed an IC50 in assay [1] of 100 µM.
